# Results taken from patent publication US5166166A, “3-dicyclohexylaminosydnone imines, process for their preparation and their use” (Cassella Aktiengesellschaft, priority 1990, dated 1992).
# System: spiral strips of the pulmonary artery of the guinea-pig
# Test: relaxing action on potassium-depolarised, CaCl2-contracted spiral strips of the pulmonary artery (modified method of Godfraind and Kaba and of Schuman et al.)
# Assay type: cell-based
# Conditions: for IC50: Cavia porcellus, guinea-pig pulmonary artery strips, 40 mmol/l potassium, contraction by 0.5 mmol/l CaCl2, cumulative addition, average of 4 to 6 vessel strips, read-out: IC50 (concentration of the test substance which inhibits the contraction by 50%); for Duration of action: time needed after addition of the test substance until the starting value is obtained again
# Experimental: The pharmacological action of the compounds of the formula I was determined by a modified method of Godfraind and Kaba (Arch. Int. Pharmacodyn. Ther. 196, (Suppl) 35 to 49, 1972) and of Schuman et al. (Naunyn-Schmiedeberg's Arch. Pharmacol. 289, 409 to 418, 1975). In this connection, spiral strips of the pulmonary artery of the guinea-pig are depolarised with 40 mmol/l of potassium after equilibration in calcium-free Tyrode solution. An addition of 0.5 mmol/l of CaCl2 then induces a contraction. The relaxing action of the test substance is determined by cumulative addition in 1/2 log 10 stepped concentrations. From the concentration-effect curve (abscissa: -log mol/l of test substance, ordinate: % inhibition of the maximum contraction, average value of 4 to 6 vessel strips), the concentration of the test substance is determined which inhibits the contraction by 50% (=IC50, mol/l). The duration of action of the test substance is given by the time which is needed after the addition of the test substance until the starting value is obtained again.
Structure (SMILES),IC50 [nM],Duration of action [min]
COc1ccc(C(=O)[N-]c2c[n+](N(C3CCCCC3)C3CCCCC3)no2)cc1 [N-p-Anisoyl-3-dicyclohexylaminosydnone imine],3000,300
Cl.N=c1c[n+](N(C2CCCCC2)C2CCCCC2)[n-]o1 [3-Dicyclohexylaminosydnone imine hydrochloride],400,270
CC(C)(C)C(=O)[N-]c1c[n+](N(C2CCCCC2)C2CCCCC2)no1 [N-Pivaloyl-3-dicyclohexylaminosydnone imine],5000,310
"Cl.N=c1c[n+](N2CCOCC2)[n-]o1 [SIN-1, 3Morpholinosydnone imine hydrochloride, reference compound]",1000,90
"CCOC(=O)[N-]c1cn(N2CCOCC2)n[o+]1 [Molsidomine, NEthoxycarbonyl-3-morpholinosydnone imine, reference compound]",300000,120
